Measured values from PMC11992618, “Development of cyclopeptide inhibitors specifically disrupting FXR–coactivator interaction in the intestine as a novel therapeutic strategy for MASH” (Life Metabolism, 2025).

Molecular target: T1, PPARδ (Homo sapiens, UniProt Q03181)
T1 sequence (Q03181 1-441): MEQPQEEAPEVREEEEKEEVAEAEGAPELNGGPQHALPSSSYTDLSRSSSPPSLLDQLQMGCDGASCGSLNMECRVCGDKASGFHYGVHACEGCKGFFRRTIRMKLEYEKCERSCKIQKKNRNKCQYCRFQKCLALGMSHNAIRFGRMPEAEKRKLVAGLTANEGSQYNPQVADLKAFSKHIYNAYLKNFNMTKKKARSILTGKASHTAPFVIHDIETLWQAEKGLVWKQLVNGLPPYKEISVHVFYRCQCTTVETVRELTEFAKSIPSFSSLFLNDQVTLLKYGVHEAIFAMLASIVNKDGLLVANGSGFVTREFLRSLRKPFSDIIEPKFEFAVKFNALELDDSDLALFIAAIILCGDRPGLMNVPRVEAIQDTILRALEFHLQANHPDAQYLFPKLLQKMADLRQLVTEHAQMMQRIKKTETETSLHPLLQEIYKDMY
Test: PPARδ cell-based reporter assay
Settings: 10 μmol/L; inhibition of agonist-induced receptor activation
From the text: Inhibition% means inhibition percentage of agonist-induced receptor activation.

CC(C)C[C@@H]1NC(=O)[C@@H]2CN(CCO2)c2cccc3c2c(cn3[Si](C(C)C)(C(C)C)C(C)C)C[C@H](NS(=O)(=O)C(F)(F)F)C(=O)OCCCCNC(=O)[C@H](CC(C)C)NC(=O)[C@@H]2CN(CCO2)c2cccc3c2c(cn3[Si](C(C)C)(C(C)C)C(C)C)C[C@H](NS(=O)(=O)C(F)(F)F)C(=O)OCCCCNC1=O [DC646, N,N'-((1^2R,1^4S,16^2R,16^4S,4R,13R,19R,28R)-13,28-diisobutyl-5,12,15,20,27,30-hexaoxo-2^1,17^1-bis(triisopropylsilyl)-2^1H,17^1H-6,21-dioxa-11,14,26,29-tetraaza-1(4,2),16(2,4)-dimorpholina-2,17(4,3)-diindolacyclotriacontaphane-4,19-diyl)bis(1,1,1-trifluoromethanesulfonamide)]
inhibition at 10 µM: 18.9%
